Source: US4140767A, “Somatostatin analogs” (Merck & Co., Inc., priority 1977, dated 1979)

Legend:
growth hormone release = assay: Inhibition of pentobarbital stimulated growth hormone release in vivo; set-up: species or system rat; details: rats, sodium pentobarbitol 17 mg./Kg., analog subcutaneously, blood after 15 minutes; somatostatin = 1; range in brackets
Procedure: Somatostatin analogs were compared to somatostain in their ability to inhibit the release of growth hormone in pentobarbital stimulated rats; a modification of the procedure of Brazeau et al. Endocrinology, 94, 184-187 (1974) was empaloyed. Rats were lightly etherized and sodium pentobarbitol (17 mg./Kg.) was injected into the exposed Saphenous vein; somatostatin or analog was simultaneously injected subcutaneously. After 15 minutes the animals were bled via the orbital sinus and blood collected for subsequent growth hormone analysis.
(§1) Doses were randomized between groups of animals (6 rats/group). Potency values were determined by four, six, or 8 point bioassays with somatostatin as the reference standard. Relative potency values were calculated by a relative potency formula for parallel line bioassays as described in Finney, D. J. Statistical Method in Biological Assay (Charles Griffin and Co., Ltd., London) Chap. 4 pp. 99-138 (1964).

plasma insulin = assay: Inhibition of insulin: lowering of portal vein insulin in anesthetized rats; assay type: in vivo, rat; details: anesthetized male Sprague-Dawley rats, external jugular vein administration, portal vein blood after 5 minutes; somatostatin = 1; range in brackets
Procedure: (§2) The relative potencies of somatostatin analogs on the lowering of plasma insulin and glucagon are determined by the following method:
(§3) Analogs of somatostatin were […] to somatostatin in their ability to lower the levels of portal vein glucagon and insulin in anesthetized rats. Male Sprague-Dawley rats (Charles River CD) weighing 160-200 grams were anesthetized with urethane (150 mg./100 gm.) Saline or peptides were administered via the external jugular vein. After 5 minutes the portal vein was exposed and blood was collected via syringes containing 3 mg. EDTA and placed in chilled tubes containing 100 μl. of Trasylol (obtained from FBA Pharmaceuticals) for subsequent hormone analysis. Plasma levels of glucagon were determined by the method of Faloona, G. R., and Unger, R. H. "Glucagon" in Methods of Hormone Radioimmunoassay, eds. […] Plasma levels of insulin were determined by a modification of the procedure of Herbert, V., Lau, K. S., Gottlieb, C. […]
as §1, with “4 pp. 99-138 (1964).” left out

plasma glucagon = assay: Inhibition of glucagon: lowering of portal vein glucagon in anesthetized rats; assay type: in vivo, rat; details: anesthetized male Sprague-Dawley rats, external jugular vein administration, portal vein blood after 5 minutes; somatostatin = 1; range in brackets
Procedure: as §2, §3
as §1, with “4 pp. 99-138 (1964).” left out

Rat pituicytes = assay: Growth hormone inhibition in vitro; assay type: cell-based; details: rat pituicytes after 4 days in culture, 4 hours incubation; somatostatin = 1; range in brackets
Procedure: Rat pituicytes were isolated according to the procedures of Vale and Grant "In vitro Pituitary Hormone Secretion Assay for Hypophysiotropic Substances" in Methods in Enzymology. Vo. XXXVII, eds. O'Malley, B. W. and Hardman, J. G. (Academic Press, Inc., New York) pp. 5-93 (1975).
After 4 days in culture, the cells were washed and incubated for 4 hours in Dulbecco-modified Eagle's medium in the presence or absence of graded doses of each analog or somatostatin. The medium was then collected for subsequent growth hormone determination by a double antibody radioimmunoassay for rat growth hormone.
as §1

C[C@H](N)C(=O)NCC(=O)N[C@H]1CSSC[C@@H](C(=O)O)NC(=O)[C@H](CO)NC(=O)[C@H]([C@@H](C)O)NC(=O)[C@H](Cc2ccccc2)NC(=O)[C@H]([C@@H](C)O)NC(=O)[C@H](CCCCN)NC(=O)[C@H](Cc2c[nH]c3ccccc23)NC(=O)[C@H](Cc2ccccc2)NC(=O)[C@H](Cc2ccccc2)NC(=O)[C@H](CC(N)=O)NC(=O)[C@H](CCCCN)NC1=O [Somatostatin]
1: Inhibition of Pentobarbital Stimulated Growth Hormone Release In Vivo; potency relative to somatostatin (growth hormone release) | Inhibition of Insulin; potency relative to somatostatin (plasma insulin) | Inhibition of Glucagon; potency relative to somatostatin (plasma glucagon) | Growth Hormone Inhibition In Vitro; potency relative to somatostatin (Rat pituicytes)
